Measured values from patent US10258040B2, “Use of combinations comprising host defense inducers and biological control agents for controlling bacterial harmful organisms in useful plants” (Bayer CropScience Aktiengesellschaft, priority 2013, dated 2019).

What was measured:
[1] = system: Streptomyces scabies; assay: in vivo preventive (seed growth test) test on Streptomyces scabies (potato), scab efficacy at harvest; settings: T2: dose 12/100 kg seed, ST, natural field conditions
Protocol: (§1) • Solvent: water • Tested compounds: Isotianil (FS200 formulation) at 30/24/12 ml/100 KG Potato Seed • Penflufen (Emesto FS240 formulation) at 10 ml/100 KG Potato Seed • Serenade ASO (Bacillus subtilis QST 713 strain/SC/1.34%) 5 Litres/ha (200 ml/area sown under 100 KG Seed)
(§2) To test for seed (tuber) treatment activity mixtures of Isotianil FS200 and Serenade ASO SC in combination with an optional further fungicide, ie Potato tubers are selected having reasonable Streptomyces scabies infestation. Seed was treated by spray on the tubers with hand knapsack sprayer using total volume of slurry 1500 ml/100 Kg Seed. Seed treatment was done with Isotianil FS 200 alone and in tank-mix with Penflufen.
(§3) Serenade ASO SC 1.34% @ 5000 ml/ha of formulated product was sprayed in the furrows just before the sowing of seeds. 100 KG seeds are sown on an area of 400 m^2 and Serenade ASO @ 200 ml formulated product was used in this test. Seed treated with Isotianil and optional Penflufen as method described above was used in combination with soil application of Serenade ASO in furrows before sowing. This study was conducted in natural field conditions chamber and observations for Streptomyces scabies infestation on potato was taken at the time of harvest.
(§4) The test is evaluated at harvest of potato crop.

[2] = system: Potato; assay: potato field seed/soil treatment test: plant and stem number, tuber weight, tuber grading; settings: T2: dose 12/100 kg seed, ST
Protocol: as §1, §2, §3, §4

[3] = system: Pseudomonas syringae pv. tomato; assay: in vivo preventive test on Pseudomonas syringae pv. tomato (tomatoes); settings: sprayed one week before inoculation, evaluated 1 week after inoculation
Protocol: When the percentage of inhibition observed for the combination is greater than E, there is a synergistic effect. • Solvent: deionized water • tested compounds: […] To test for preventive activity, young plants are sprayed with the prepared compounds at three different rates of application. One week after application, the plants are inoculated with an aqueous suspension of Pseudomonas syringae pv. tomato. Inoculated plants are placed in a greenhouse chamber at 25° C. at a relative atmospheric humidity of 90%.

N#Cc1ccccc1NC(=O)c1snc(Cl)c1Cl [(A.2) Isotianil, isotianil]
% age Efficacy Scab [1]: 68% | % age Grading Large ([2]; potato tubers at harvest): 34% | % age Grading Small ([2]; potato tubers at harvest): 29% | % age Grading medium ([2]; potato tubers at harvest): 37% | % age increase/dicrease over conrol, No. of Plants/5 meter ([2]; potato, field): 3% | % age increase/dicrease over conrol, No. of stems/meter ([2]; potato, field): 7% | % age increase/dicrease over conrol, Weight of tuber/5 meter ([2]; potato, field): 11% | Efficacy in % found ([3]; application rate 50 g a.i.): 6% | Efficacy in % found ([3]; application rate 100 g a.i.): 0% | Efficacy in % found ([3]; application rate 200 g a.i.): 0%
